This is an account of results in patent publication EP0943606A1, “BENZENESULFONAMIDE DERIVATIVES AND DRUGS CONTAINING THE SAME” (HOKURIKU SEIYAKU CO., LTD., priority 1996, dated 1998).

In data set [1] the target is T1, thromboxane A2 / prostaglandin H2 receptor (Cavia porcellus, UniProt A0A286Y4I8).
T1 construct: tracheas were isolated from male Hartley guinea-pigs, and spiral specimens of approximately 2 cm length were prepared; from tissue; host or cells: isolated guinea-pig trachea (spiral strips)
T1 sequence (A0A286Y4I8 1-347): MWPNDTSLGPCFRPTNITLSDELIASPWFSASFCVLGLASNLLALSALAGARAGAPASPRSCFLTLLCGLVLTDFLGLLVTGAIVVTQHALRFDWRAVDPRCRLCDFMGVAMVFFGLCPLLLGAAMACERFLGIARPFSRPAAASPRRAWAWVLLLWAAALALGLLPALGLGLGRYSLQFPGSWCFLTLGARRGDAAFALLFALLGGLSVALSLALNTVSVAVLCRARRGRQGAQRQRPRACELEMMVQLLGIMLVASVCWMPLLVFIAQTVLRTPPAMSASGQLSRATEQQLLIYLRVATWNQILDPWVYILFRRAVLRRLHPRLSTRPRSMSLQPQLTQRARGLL
As to the kind of experiment: Thromboxane A2 antagonistic effect (isolated trachea, U-46619 concentration-response curves, Schild). More on the design: species or system male Hartley guinea-pigs. To be noted: isolated guinea-pig trachea, contraction by U-46619, test compound treatment 5 minutes, indomethacin 3 × 10^-6M, method of Schild. Here is the method:
According to an ordinary method, tracheas were isolated from male Hartley guinea-pigs, and spiral specimens of approximately 2 cm length were prepared. These specimens were suspended in organ baths that contained Krebs-Henseleit solution at 37°C under a resting tension of 1.5 g, and the changes in isometric tension were recorded. The first concentration-response curves were obtained by cumulative applications of 1 × 10^-9 to 3 × 10^-7M of U-46619 (Cayman, thromboxane A2 / prostaglandin H2 receptor agonist) in the organ baths. After treatments with test compounds at adequate concentrations for 5 minutes, the second concentration-response curves were obtained in the same manner as the first applications. pKB values were calculated using these two concentration-response curves according to the method of Schild [Pharmacological Review, Vol. 9, 242 (1957)]. Indomethacin (3 × 10^-6M, Sigma) was added beforehand to the organ bath to eliminate possible affections by thromboxane A2 and prostaglandin produced endogenously [Japan J. Pharmacol., Vol. 60, 227 (1992)].

In data set [2] the test system is bronchoconstriction induced by U-46619. As to the kind of experiment: Inhibitory effect on bronchoconstriction induced by U-46619 (Konzett-Roessler). Format: in vivo, Male Hartley guinea-pigs. To be noted: Cavia porcellus; 0.3 mg/kg orally, 2 hours before U-46619 (4 µg/kg, cervical vein), anesthetized guinea-pigs, compared to control group; read-out: Inhibition rate (%). Here is the method:
Airway resistance was evaluated according to the method of Konzett-Roessler [Naunyn-Schmiedberg's Arch. Exp. Path. Pharmak., Vol. 195, 71 (1940)]. Male Hartley guinea-pigs (about 400g wt.) were anesthetized with urethane (1.5g/kg, i.p.) and ventilated by an artificial respirator (Model 683; Harvard). At the same time, overflowed air volume above the pressure of about 12cm H2O was measured by using a sensor (Model 7020; Ugo Basile) and the value was used as an index of bronchoconstriction. 0.3 mg/kg (5 ml/kg) of test compounds suspended in 5% gum Arabic was administered orally to the guinea-pigs fasted beforehand for 24 hours. After 2 hours, U-46619 (4 µg/kg; Cayman) was administered through the cervical vein, and then maximal response was measured. Inhibitory rates compared to the control group were calculated based on the response rate normalized by the complete closure as 100%. […]

In a further data set the target is T2, leukotriene D4 (Cavia porcellus, UniProt Q2NNR5).
T2 construct: tracheas were isolated from male Hartley guinea-pigs, and spiral specimens of approximately 2 cm length were prepared; from tissue; host or cells: isolated guinea-pig trachea (spiral strips)
T2 sequence (Q2NNR5 1-340): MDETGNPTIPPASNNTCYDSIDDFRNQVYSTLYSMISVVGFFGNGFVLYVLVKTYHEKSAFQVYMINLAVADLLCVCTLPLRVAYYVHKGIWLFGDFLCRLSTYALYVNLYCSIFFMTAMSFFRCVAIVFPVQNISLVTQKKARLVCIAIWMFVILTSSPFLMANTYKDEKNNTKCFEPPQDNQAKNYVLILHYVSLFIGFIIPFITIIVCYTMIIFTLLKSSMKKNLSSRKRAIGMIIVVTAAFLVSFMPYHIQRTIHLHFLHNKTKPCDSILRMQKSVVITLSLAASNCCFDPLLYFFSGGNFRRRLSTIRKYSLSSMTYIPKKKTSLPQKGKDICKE
As to the kind of experiment: Leukotriene D4 antagonistic effect (isolated trachea, leukotriene D4 concentration-response curves, Schild). The following applies: isolated guinea-pig trachea, contraction by leukotriene D4, test compound treatment 30 minutes, indomethacin 1 × 10^-6M, method of Schild. More on the design: species or system male Hartley guinea-pigs. Here is the method: According to an ordinary method, tracheas were isolated from male Hartley guinea-pigs, and spiral specimens of approximately 2 cm length were prepared. These specimens were suspended isotonically in organ baths that contained Krebs-Henseleit solution at 37°C under a resting tension of 0.5g. After contractions with acetylcholine (1 × 10^-5M; Ovisot for injection, Daiichi Seiyaku), and the first concentration-response curves were obtained by cumulative applications of 10^-10 to 10^-8M of leukotriene D4 (ULTRA FINE) in the organ baths. After treatments with test compounds at adequate concentrations for 30 minutes, the second concentration-response curves were obtained in the same manner as the first applications. pKB values were calculated using these two concentration-response curves according to the method of Schild [Pharmacological Review, Vol. 9, 242 (1957)]. Indomethacin (1 × 10^-6M, Sigma) was added beforehand to the organ bath to eliminate possible affections by thromboxane A2 and prostaglandin produced by stimulus of leukotriene D4 [Japan J. Pharmacol., Vol. 60, 227 (1992)]. […]

Data set [3] deals with bronchoconstriction induced by leukotriene D4. As to the kind of experiment: Inhibitory effect on bronchoconstriction induced by leukotriene D4 (Konzett-Roessler). Format: in vivo, Male Hartley guinea-pigs. The following applies: Cavia porcellus; oral administration 2 hours before leukotriene D4 (1 µg/kg, cervical vein), anesthetized guinea-pigs, indomethacin and propranolol pretreated. Here is the method: Airway resistance was evaluated according to the method of Konzett-Roessler [Naunyn-Schmiedberg's Arch. Exp. Path. Pharmak., Vol. 195, 71 (1940)]. Male Hartley guinea-pigs fasted beforehand for 24 hours were anesthetized with urethane, and then overflowed air volume was measured under artificial ventilation as an index of bronchoconstriction. Various doses of test compounds suspended in 5% gum Arabic were administered orally, and after 2 hours, leukotriene D4 (1 µg/kg; ULTRA FINE) was administered through the cervical vein. Then, values at 2 minutes were measured when maximum responses were obtained. Inhibitory rates compared to the control group were calculated based on the response rate normalized by the overflowed volume at complete closure as 100% bronchoconstriction rate, and the 50% inhibitory doses (ED50 values) were calculated using dose-inhibitory rate curves. Indomethacin (2mg/kg, i.v.) and propranolol (1mg/kg, i.v.) were administered at 10 minutes and 5 minutes before the administration of leukotriene D4, respectively. […]

The next data set has as its system human liver microsomes. As to the kind of experiment: In vitro metabolism test. Format: in vitro ADME. To be noted: 0.4mg protein/ml human liver microsomes, 0.02 mM test compound, NADPH-generating system, 37°C for 30 minutes, HPLC. On the procedure:
0.05 mM EDTA-0.1M phosphate buffer (pH 7.4), distilled water, 0.4mg protein/ml human liver microsomes and 0.02 mM test compound were mixed in a test tube under ice-cooling. After the mixture was shaken at 37°C for 2 minutes beforehand, the mixture was added with a ready-mix of NADPH-generating system and then shaken at 37°C for 30 minutes. After the incubation, the reaction was stopped by cooling with ice. The mixture was added with acetonitrile and well mixted, and then centrifuged at 3000 rpm for 10 minutes. The resulting supernatant was subjected to HPLC measurement, and the residual rate of test compound was calculated from the ratio of a peak area of an unchanged compound in the reaction sample in comparison with a non-reaction mixture. Preparations of reagents and reaction mixtures were carried out by referring to Shin Seikagaku Koza, Vol. 5: Biological oxidation and drug metabolism edited by The Japanese Biochemical Society. […]
For orientation: Liver microsomes are vesicles of endoplasmic reticulum, rich in cytochrome P450 enzymes.

The term Kb denotes the affinity of an antagonist, worked out from how it opposes an agonist. A low value points to higher antagonist affinity. Usually ED50 stands for the midpoint of the dose-response relation. Consider `O=C(O)CCCc1ccc(C(CCCC(F)(F)C(F)(F)C(F)(F)F)NS(=O)(=O)c2ccc(F)cc2)cc1` (stereo not drawn) [Example 202, 4-[4-[5,5,6,6,7,7,7-Heptafluoro-1-(4-fluorophenylsulfonylamino)heptyl]phenyl]butyric Acid], for which the Kb in data set [1] is 12.6 nM; at leukotriene D4, 794 nM. Besides, the inhibition in vivo at 0.3 mg/kg in data set [2] was found to be 85%. Besides, the 50% effective dose (ED50) in data set [3] is 0.97 mg/kg. Moreover, the “Residual rate (%)” value with human liver microsomes came to 93%.
Consider `CCCCCC(NS(=O)(=O)c1ccc(Cl)cc1)c1ccc(CCCC(=O)O)cc1` (stereo not drawn) [Reference compound 1, 4-[4-[1-(4-Chlorophenylsulfonylamino)hexyl]phenyl]butyric acid, reference compound], for which the Kb is 1 nM in data set [1] and 200 nM at leukotriene D4. Also, in data set [2], the inhibition in vivo at 0.3 mg/kg stood at 85%. Also, the ED50 in data set [3] is 8.1 mg/kg. Also, the “Residual rate (%)” value in the data set with human liver microsomes was determined as 53%.
Taken in the same sequence, the figures for `CC(C)CCCC(NS(=O)(=O)c1ccc(Cl)cc1)c1ccc(CCCC(=O)O)cc1` (stereo not drawn) [Reference compound 2, 4-[4-[1-(4-chlorophenylsulfonylamino)-5-methylhexyl]phenyl]butyric acid, reference compound] were 1.26 nM, 251 nM, 81%, 9.2 mg/kg and 50%.
